Tests used:
calf thymus DNA = assay: Absorption titration with calf thymus DNA; format: binding; settings: Tris buffer
Procedure: The calf thymus DNA was purchased from Sigma-Aldrich Chemical Co. and was purified by phenol-chloroform extraction. The DNA was dissolved in buffer (5 mM Tris, 5 mM NaCl, pH 7.2). The concentration (per base pair) or calf thymus DNA was determined spectophotometrically on the basic of ε260, 13200 M^−1cm^−1bp.
Absorption Titration. Studying the interaction between drugs and DNA is imperative to pharmaceutical chemistry. Since complexation between a ligand molecule and a nucleic acid leads to optical changes, its binding can be studied using spectroscopic methods like fluorescence and electronic absorption spectroscopy (C. V. Kumar, E. H. Asuncion, J. Am. Chem. Soc. 1993, 115, 8547-8553). The binding interactions of lanthanide (III) porphyrin complexes with calf thymus DNA were investigated using UV-vis spectroscopy and depicted in FIGS. 9 and 10 (selected absorption curves were shown for clear plot). By monitoring wavelengths at 410 nm (complex 1) and 430 nm (complex 2b), successive additions of calf thymus DNA to the respective complexes in Tris buffer solution containing <5% DMSO were done until saturation. Moderate hyprochromicities of 27% and 23% in complexes 1 and 2b were found without significant bathochromic spectral shift. […] The values of binding constant K were calculated from a plot of D/Δεap versus D based on the following equation:
Where D is the concentration of DNA, Δεap=|ΔεA−ΔεB| wherein εA=Aobs/[complex], and Δε=|ΔεB−ΔεF|; εB and εF correspond to the extinction coefficients of DNA-bound lanthanide(III) porphyrin complex adduct and its free complex, respectively. By monitoring absorbance at 410 nm (complex 1) and 430 nm (complex 2b), plots of D/Δεap against D are inserted in FIGS. 9 and 10. Linear curves in two graphs were plotted with slopes of 4.63×10^−5 (complex 1) and 3.60×10^−5 (complex 2b) (both R=0.99).

PARP = assay: Western blotting analysis, PARP; format: cell-based, human; settings: HeLa, 2 μM, after the treatment
Procedure: Cells were washed in cold phosphate-buffered saline (PBS) at 4° C. and lysed in a buffer containing 0.05 M Tis.HCl (pH 7.5), 0.25 M NaCl, 0.005 M EDTA, 0.05 M NaF, 1 mM DTT and 1% Triton. Cell lysates were collected and the protein concentration of cell lysates was measured using a Protein detection kit (Bio-Rad). Equal amount of proteins was resolved in a 12% SDS-PAGE gel and transferred onto nitrocellulose membranes. The membrane was blocked with a blocking solution (1×TBS, 0.1% Tween-20 with 5% non-fat dry milk) at room temperature for 1 h, and washed three times with washing buffer (1×TBS, 0.1% Tween-20) for 5 min each. The membrane was then incubated with primary antibody (Caspase 3, Bid, PARP and β-Actin respectively) for overnight at 4° C. The membrane was washed three times with washing buffer for 5 min each before incubation with the corresponding secondary antibody (horse anti-mouse IgG or goat anti-rabbit IgG). Membrane was washed again and signals were detected using an ECL detection kit (Amersham Pharmacia Biotech) followed by the exposure to X-ray films (Fujifilm).
After treatment with complex 1 for different time intervals, the expressions of caspase 3, Bid and PARP were detected by the Western blotting analysis. […] Moreover, treatment with complex 1 leads to a reduction in the level of un-cleaved Bid.

## [Yb2(OEP)2](μ-OH)2 [Complex 1]
Calf thymus DNA; <5% DMSO, until saturation, 410 nm (1), 430 nm (2b)
  hyprochromicity on addition of calf thymus DNA: 27%
Calf thymus DNA; UV-vis absorption titration, 20° C.
  binding constant K with calf thymus DNA: (1.59±0.3)×10^6 mol^−1dm^3
PARP
  level of cleaved PARP (85 kDa): gradual increase
